Source: patent US7576177B2, “Hsp peptides and analogs for modulation of immune responses via antigen presenting cells” (Andromeda Biotech Ltd., priority 2002, dated 2009)

Key:
[1] = tested on: BALB/c DO.11.10 bone marrow cells cultured for dendritic cells, cocultured with DO.11.10 T cells; assay: Education of mouse dendritic cells and stimulation of T-cells, cytokine content of supernatant; type: cell-based
Procedure: Whelan et al. (J. Immunol 164, 6453-6460, 2000) addressed the problem in mice by an experiment in which mouse bone marrow cells were grown for 6 days in culture with GM-CSF to give immature dendritic cells. These dendritic cells were then incubated overnight with LPS (known to drive cells to DC1) or with a nematode antigen. The reason for the choice of nematode antigen was that injection of this antigen in vivo gives rise to a Th2 response in animals. After this so-called “education” of the dendritic cells, they were washed and subsequently incubated with naive T cells in the presence of antigenic stimulus. The experiment was possible because of the use of transgenic mice in which all the T cells respond to the same peptide (OVA323-339) which absolves the system from any question of bias of the T cell response at the level of the T cells. Any bias should be a consequence of the “education” of the dendritic cells. After three days of incubation the cytokine responses produced by the T cells, were measured by ELISA. […] In contrast, nematode antigen incubation gave rise to more IL-4 (Th2) than did controls while the LPS incubation inhibited the IL4 response. Therefore, the nematode antigen was said to drive cells to DC2. A similar method was used for testing the compounds of the present invention: • 1. Bone marrow cells were extracted from the leg bones of DO.11.10 mice transgenic for the TcR. All cells from these mice respond to the OVA peptide ([…]). • 2. Bone marrow cells were plated at 10^6 cells/ml in 100 mm diameter tissue culture petri dishes in Iscove's medium supplemented with 10% FCS, […], 1 mM sodium pyruvate, penicillin/streptomycin (according to manufacturer's recommendations), non-essential amino acids, 50 μM β-mercaptoethanol and 10 ng/ml mGM-CSF. • 3. After 4 days, the medium was carefully removed and replaced with fresh medium • 4. After 6 days, the non-adherent cells were harvested and used as immature dendritic cells • 5. The immature dendritic cells are plated at 1×10^6 cells/ml, 1 ml/well in 24 well plates in the above medium with various reagents added at various concentrations and incubated overnight. This is the stage in which the dendritic cells are “educated” • 6. The next day the cells were harvested and washed 3 times then resuspended at 5×10^4 cells/ml in 1 ml of the above medium but without the addition of GM-CSF to be cocultured with T cells • 7. […] 5×10^5 T cells were cultured with the dendritic cells from step 6 in the presence of various concentrations of the OVA peptide (0, 0.3 nM, 3 nM and 30 nM). • 9. After 3 days PMA (50 ng/ml) and ionomycin (500 ng/ml) were added to further stimulate the cells. • 10. The next day the cell supernatants were collected and assayed for cytokine content (Interferon γ, IL4, IL-10 and IL-12).
The compound was tested for stimulation of DO.11.10 bone marrow cells according to the assay described above (Production and education of mouse dendritic cells and stimulation of T-cells).
BALB/c DO.11.10 bone marrow cells were cultured for dendritic cells and then stimulated with LPS 1 μg/ml, LPS 10 μg/ml, hsp60 3 μg/ml, hsp60 10 μg/ml, p277 5 μg/ml and p277 50 μg/ml. The cells were then transferred to wells with T cells from fresh BALB/c DO.11.10 mice and stimulated with OVA peptide at different concentrations (0, 0.3 nM, 3 nM, 30 nM). Supernatant was collected after 48 hours for assay. 30 μl was taken for IFN, 40 μl for IL4 and IL-10 and 50 μl for IL-12 assays. The results are presented in the following tables, as amount of cytokine (pg/ml), and in FIG. 1.

[2] = tested on: peripheral blood mononuclear cells cultured with GM-CSF and IL4 (dendritic cells); assay: Peripheral blood derived dendritic cells: secreted cytokines (IP-10, IL-8) and cell surface antigens (CD83, CD86); type: cell-based, human
Procedure: The effect of the compositions of the present invention on peripheral blood derived dendritic cells, was tested according to a protocol described by Re, F. and Strominger, J. L. 2001. Toll-like receptor 2 (Tlr2) and Tlr4 differentially activate human dendritic cells. (J Biol Chem 276: 37692-9). According to this method immature dendritic cells derived from human peripheral blood are used. The outcome after incubating the cells with tested molecules is different if the stimulation is through the Toll 4 receptor or the Toll 2 receptor. According to the authors, Toll 2 signaling by stimulation with zymosan is associated with a Th2 kind of response (exemplified by IL-8) and Toll 4 signaling, such as obtained by LPS stimulation (exemplified by IP-10), with a Th1 type of response. The compositions of the present invention were tested using a similar assay system in order to check which stimulation type they induce. […] The increase in CD86 expression after exposure of APCs to Hsps or Hsp derived peptides is important since CD86 (B7.2) is an essential component of the immunological synapse formed between T cells and APC. This synapse consists of CD80 and CD86 on the side of the APC and CD28 and CD40 on the side of the T cell. T cell recognition of peptide on APC without the concurrent expression of CD86 gives rise to anergy instead of a T cell response. Therefore in order to produce a response all components must be present.
The assay was based on the protocol described by Re, F. and Strominger, J. L. 2001. Toll-like receptor 2 (Tlr2) and Tlr4 differentially activate human dendritic cells. (J. Biol Chem 276: 37692-9).
Peripheral blood mononuclear cells were prepared from leucocytes from blood lots obtained from the blood bank. The cells were plated at 10^8 cells/10 ml/Petri dish in RPMI medium including 10% FCS and allowed to adhere at 37° C. for 2 hours. At the end of this time, the non-adherent cells were washed off the plates with PBS and the adherent cells resuspended in fresh medium as before. The cells were then cultured for at least 8 days with the addition of GM-CSF and IL4 with the medium changed every 4 days. After this time, the cells were harvested and cultured overnight with LPS, zymosan or p277(Val^6-Va^11). The next day, the supernatant was collected for assay of the secreted cytokines (IP-10 and IL-8) and the cells were harvested for investigation of the cell surface antigens (CD83, CD86). CD83 is an antigen characteristic of dendritic cells. […] The second marker, CD86 (B7.2) is characteristic of mature dendritic cells. The marker CD86 is an essential component of the immunological synapse formed between T cells and APC. This synapse consists of CD80 and CD86 on the side of the APC and CD28 and CD40 on the side of the T cell. This is of course in addition to the specific recognition between the T cell receptor and peptide held in the MHC of the APC. T cell recognition of peptide on APC without the concurrent expression of CD86 gives rise to anergy instead of a T cell response.

mouse monocyte line J774 = assay: Secretion of oxygen free radicals (oxidative burst) from mouse monocyte line; type: cell-based; conditions: J774, FIG. 5
[3] = compared with non-exposed dendritic cells
[4] = dendritic cells educated with 1 μg/ml, 0.3 nM Ova peptide
[5] = dendritic cells educated with 10 μg/ml, 0.3 nM Ova peptide

## lipopolysaccharide [LPS, reference compound]
[1]; [3]
  IFN gamma produced by T cells after treatment of dendritic cells (in words): increased IFN gamma
  IL-4 produced by T cells after exposure of dendritic cells (in words): decreased IL4
[1]; [4]
  IL-4 secretion of T cells: 11.07 pg/mL
  IL-10 secretion of T cells: 15.26 pg/mL
  IL-12 secretion of T cells: 90.00 pg/mL
[1]; dendritic cells educated with 1 μg/ml, T cells stimulated with 0.3 nM Ova peptide
  IFN secretion of T cells: 328.33 pg/mL
[1]; [5]
  IFN secretion of T cells: 478.89 pg/mL
  IL-4 secretion of T cells: 1.07 pg/mL
  IL-10 secretion of T cells: 75.48 pg/mL
  IL-12 secretion of T cells: 131.25 pg/mL
[2]; overnight stimulation, FIG. 3
  maturation: percentage of cells stained with anti-CD86: increase of maturation
[2]; stimulus 10 ng/ml, overnight
  IL-8: 3131 pg/mL
  IP-10: 2520 pg/mL

## VALLRVIPA (Homo sapien) [p277(442-450, Val^6Val^11)]
Mouse monocyte line J774
  inhibition of the oxidative burst (secretion of oxygen free radicals): effective
